Tests used:
Assay type in all cases: in vivo, C57BL/6 mice
[1] = test system: DSS-induced colitis model; assay: Histopathology (H&E) of large intestinal mucosa: erosion and epithelial hyperplasia; study of FIG. 10
Source text: (§1) First, in the case of an animal model for mice in which ulcerative colitis is induced using DSS (Dextran sulfate sodium), bloody stool, weight loss, large intestinal shrinkage, and mucosal ulcers occur, and histologically, damage occurs in large intestinal epithelial cells, so that the intestinal glands of an epithelial layer fall off without inflammation. Further, the amount of f various immune substances in the mucosa increases to cause intestinal inflammation. For this reason, DSS has been widely used to create experimental animal models.
(§2) Specifically, in a DSS-induced colitis model in which 9-week-old female C57BL/6 mice were allowed to freely ingest 2% DSS, an experiment was conducted assuming that one C57BL/6 mouse ingested 5 ml of water containing 2% DSS per day.
(§3) For 7 days, only water containing 2% DSS without any treatment was provided to the mice, and for 5 days after the 7th day, water without 2% DSS was provided, and simultaneously, various comparative substances, including NP-011 protein, were fed at various concentrations by injection into the caudal vein, thereby creating an animal model of inducing ulcerative colitis.
(§4) Lastly, as shown in FIG. 6 and FIG. 10, a third experimental group ‘NP-011’ that is an experimental group was supplied with only water containing 2% DSS from day 0 to day 7, was supplied with plain water from day 7 to day 14, and NP-011 recombinant protein of 320 μg/kg was administered once a day for 5 days starting from day 7, a total of 5 times.
Form the results in FIG. 7 and Table 1, it can be confirmed that the degrees of crypt damage, inflammation severity, and inflammation extent in the mucosa were reduced in the order of MFG-E8 160 μg/kg, NP-011 80 μg/kg, and NP-011 320 μg/kg compared with the positive control group after induction of ulcerative colitis, so that the overall degree of damage to the large intestinal mucosa was lowered.
Then, the tissue fixed with 4% paraformaldehyde was subjected to staining (Hematoxylin & Eosin stain) and histopathological examination by KP&T Co., Ltd. The pathological interpretation was made with reference to INHAND. The degrees of erosion and epithelial hyperplasia in the mucosa of the large intestinal tissue were measured for comparison of lesions in the respective animal model groups, and results thereof are shown in FIG. 11 and Table 2. (Reference-J Toxicol Pathol 2016; 29 (1 Suppl)): 1S-124S)

[2] = test system: DSS-induced colitis model; assay: Body weight change, study of FIG. 10 (FIG. 12, Tables 4 and 5); settings: for Change of original weight: AD group
Source text: as §1, §2, §3
Lastly, as shown in FIG. 6 and FIG. 10, a third experimental group ‘NP-011’ that is an experimental group was supplied with only water containing 2% DSS from day 0 to day 7, was supplied with plain water from day 7 to day 14, […] for 5 days starting from day 7, a total of 5 times.
In addition, increase or decrease in body weight was analyzed on the basis of the original body weight, and the level of weight increase or decrease compared with the positive control group was also analyzed.

[3] = test system: DSS-induced colitis model; assay: Body weight change, study of FIG. 6 (FIG. 8, Table 3); settings: MFG-E8 160 μg/kg
Source text: as §1, §2, §3, §4
First, using the animal models corresponding to the ‘NTC’ control group, the ‘UC CONTROL’ control group, the ‘MFG-E8’ experimental group, the ‘NP-011’ second experimental group, and the ‘NP-011’ third experimental group, body weight was measured daily for each animal model group before drug administration to reduce errors due to the administration.
In addition, increase or decrease in body weight was analyzed compared with the positive control group, and comprehensive results thereof are shown in FIG. 8 and Table 3.

[4] = test system: DSS-induced colitis model; assay: Histopathology (H&E) of large intestinal mucosa: crypt damage, inflammation severity, inflammation extent; study of FIG. 6
Source text: First, in the case of an animal model for mice in which ulcerative colitis is induced using DSS (Dextran sulfate sodium), bloody stool, weight loss, large intestinal shrinkage, and mucosal ulcers occur, and histologically, damage occurs in large intestinal epithelial cells, so that the intestinal glands of an epithelial layer fall off without inflammation. Further, the amount of f various immune substances in the mucosa increases to cause intestinal inflammation. For this reason, DSS has been widely used to create experimental animal models. Specifically, in a DSS-induced colitis model in which 9-week-old female C57BL/6 mice were allowed to freely ingest 2% DSS, an experiment was conducted assuming that one C57BL/6 mouse ingested 5 ml of water containing 2% DSS per day. For 7 days, only water containing 2% DSS without any treatment was provided to the mice, and for 5 days after the 7th day, water without 2% DSS was provided, and simultaneously, various comparative substances, including NP-011 protein, were fed at various concentrations by injection into the caudal vein, thereby creating an animal model of inducing ulcerative colitis. […] Lastly, as shown in FIG. 6 and FIG. 10, a third experimental group 'NP-011' that is an experimental group was supplied with only water containing 2% DSS from day 0 to day 7, was supplied with plain water from day 7 to day 14, and NP-011 recombinant protein of 320 μg/kg was administered once a day for 5 days starting from day 7, a total of 5 times. First, using the animal models corresponding to the 'NTC' control group, the 'UC CONTROL' control group, the 'MFG-E8' experimental group, the 'NP-011' second experimental group, and the 'NP-011' third experimental group, for each animal model group, the cecum was removed from a large intestinal tissue, and 1 to 2 cm of the proximal and 1 cm of the anus were secured and fixed with 4% paraformaldehyde. Then, the tissue fixed with 4% paraformaldehyde was subjected to staining (Hematoxylin & Eosin stain) and histopathological examination by KP&T Co., Ltd. The pathological interpretation was made with reference to […] (International Harmonization of Nomenclature and Diagnostic Criteria for Lesions) which is an international standard toxicology glossary. The degrees of crypt damage, inflammation severity, and inflammation extent in the mucosa of the large intestinal tissue were measured for comparison in the respective animal model groups, and results thereof are shown in FIG. 7 and Table 1. (Reference-J Toxicol Pathol 2016; 29 (1 Suppl): 1S-[…])

[5] = test system: DSS-induced colitis model; assay: Colon length, study of FIG. 6 (FIG. 9); settings: MFG-E8 160 μg/kg; 3 days after the last administration
Source text: First, in the case of an animal model for mice in which ulcerative colitis is induced using DSS (Dextran sulfate sodium), bloody stool, weight loss, large intestinal shrinkage, and mucosal ulcers occur, and histologically, damage occurs in large intestinal epithelial cells, so that the intestinal glands of an epithelial layer fall off without inflammation. Further, the amount of f various immune substances in the mucosa increases to cause intestinal inflammation. For this reason, DSS has been widely used to create experimental animal models. […]
First, using the animal models corresponding to the \NTC′ control group, the ‘UC CONTROL’ control group, the ‘MFG-E8’ experimental group, the ‘NP-011’ second experimental group, and the ‘NP-011’ third experimental group, the large intestine was extracted separately for each animal model group, the colon length was analyzed, and the results thereof are shown in FIG. 9.
Specifically, to analyze the colon length, each animal model was euthanized by gradual increase in carbon dioxide 3 days after the last administration, and the large intestine was extracted. The extracted large intestine was photographed with a length measuring device (30 cm ruler), and the obtained photograph was quantified using image J.

[6] = MGF-E8 160 μg/kg, once a day x5 from day 7

Adalimumab
Epithelial hyperplasia score ([1]; AD 4 mg/kg): 4.2
Erosion, mucosa ([1]; AD 4 mg/kg): 0.8
Group total average ([1]; AD 4 mg/kg, erosion + hyperplasia): 5.0
degrees of erosion and epidermal hyperplasia in the mucosa of large intestinal tissues ([1]; Adalimumab group): reduced
Dunnett's multiple comparisons test UC VS AD, Summary (body weight) ([2]; 10 days): ** (** P<0.01)
weight loss ([2]; Adalimumab group, Cyclosporine A group, NP-011 groups (20 to 80 μg/kg)): weight loss was observed
Change of original weight ([2]; Day 1): 0.161 g
Change of original weight ([2]; Day 2): 0.237 g
Change of original weight ([2]; Day 3): 0.438 g
Change of original weight ([2]; Day 4): 0.411 g
Change of original weight ([2]; Day 5): -0.217 g
Change of original weight ([2]; Day 6): -0.846 g
Change of original weight ([2]; Day 7): -1.464 g
Change of original weight ([2]; Day 8): -1.702 g
Change of original weight ([2]; Day 9): -1.683 g
Change of original weight ([2]; Day 10): -1.444 g
Dunnett's multiple comparisons test UC VS AD, Summary (body weight) ([2]; Day 11): **** (**** P<0.0001)
Change of original weight ([2]; Day 11): -0.471 g
Dunnett's multiple comparisons test UC VS AD, Summary (body weight) ([2]; Day 12): **** (**** P<0.0001)
Change of original weight ([2]; Day 12): -0.035 g
Dunnett's multiple comparisons test UC VS AD, Summary (body weight) ([2]; Day 13): **** (**** P<0.0001)
Change of original weight ([2]; Day 13): -0.467 g

B1: milk fat globule-EGF factor 8 (protein, UniProt Q08431 24-387, looked up)
Lactadherin: LDICSKNPCHNGGLCEEISQEVRGDVFPSYTCTCLKGYAGNHCETKCVEPLGLENGNIANSQIAASSVRVTFLGLQHWVPELARLNRAGMVNAWTPSSNDDNPWIQVNLLRRMWVTGVVTQGASRLASHEYLKAFKVAYSLNGHEFDFIHDVNKKHKEFVGNWNKNAVHVNLFETPVEAQYVRLYPTSCHTACTLRFELLGCELNGCANPLGLKNNSIPDKQITASSSYKTWGLHLFSWNPSYARLDKQGNFNAWVAGSYGNDQWLQVDLGSSKEVTGIITQGARNFGSVQFVASYKVAYSNDSANWTEYQDPRTGSSKIFPGNWDNHSHKKNLFETPILARYVRILPVAWHNRIALRLELLGC
notes: milk fat globule-EGF factor 8 (MFG-E8) protein, comparator
Dunnett's multiple comparisons test UC VS MFG-E8, Summary (body weight) ([3]; Day 7): ns
Dunnett's multiple comparisons test UC VS MFG-E8, Summary (body weight) ([3]; Day 8): ns
Dunnett's multiple comparisons test UC VS MFG-E8, Summary (body weight) ([3]; Day 9): ns
Dunnett's multiple comparisons test UC VS MFG-E8, Summary (body weight) ([3]; Day 10): ns
Dunnett's multiple comparisons test UC VS MFG-E8, Summary (body weight) ([3]; Day 11): ns
degrees of crypt damage, inflammation severity, and inflammation extent in the mucosa compared with the positive control group ([4]; MFG-E8 160 μg/kg): reduced
Crypt Damage [4, 6]: 2.9
Inflammation Extent [4, 6]: 1.2
Inflammation Severity ([4]; MGF-E8 160 μg/kg, once a day x5 from day 7, caudal vein): 1.1
Group total average ([4]; MGF-E8 160 μg/kg, sum of severity, extent, crypt damage): 5.2
colon length shrinkage suppression effect compared with the non-administration control group [5]: statistically significant increase in the colon length shrinkage suppression effect

— patent US20250186545A1, “RECOMBINANT PROTEIN FOR ULCERATIVE COLITIS TREATMENT OR PREVENTION AND COMPOSITION FOR ULCERATIVE COLITIS TREATMENT OR PREVENTION CONTAINING THE SAME” (NEXEL CO., LTD., priority 2021, published 2025)
